Data published in patent US10508113B2, “Inhibitors of tyrosine kinase 2 mediated signaling” (AbbVie Inc., priority 2018, dated 2019).

Molecular target: T1, Jak2 (Homo sapiens, UniProt O60674)
T1 construct: Cell Type: UT7 cells engineered to express the erythropoietin (EPO) receptor; endogenous in cells; host or cells: UT7 cells engineered to express the EPO receptor
Assay: Jak2 (PSTATS UT7) alpha screen assay: inhibition of EPO induced phosphorylation of STAT5 in UT7 cells
Format: cell-based
Conditions: for EC50: EPO induced pSTAT5, UT7 cells; for Tyk2 selectivity over Jak2: calculated from tabulated EC50 data (Jak2 / Tyk2)
In short: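 EPO-receptor-expressing UT7 cells, starved overnight of EPO, preincubated 30 min at 37 °C with compound (8-point 1:3, top 25 µM final), then stimulated with 1 nM EPO for 20 min. After lysis, pSTAT5 (Tyr694/699) measured by SureFire AlphaScreen; EC50 from dose-response of percent activity.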

T1 sequence (O60674 whole entry): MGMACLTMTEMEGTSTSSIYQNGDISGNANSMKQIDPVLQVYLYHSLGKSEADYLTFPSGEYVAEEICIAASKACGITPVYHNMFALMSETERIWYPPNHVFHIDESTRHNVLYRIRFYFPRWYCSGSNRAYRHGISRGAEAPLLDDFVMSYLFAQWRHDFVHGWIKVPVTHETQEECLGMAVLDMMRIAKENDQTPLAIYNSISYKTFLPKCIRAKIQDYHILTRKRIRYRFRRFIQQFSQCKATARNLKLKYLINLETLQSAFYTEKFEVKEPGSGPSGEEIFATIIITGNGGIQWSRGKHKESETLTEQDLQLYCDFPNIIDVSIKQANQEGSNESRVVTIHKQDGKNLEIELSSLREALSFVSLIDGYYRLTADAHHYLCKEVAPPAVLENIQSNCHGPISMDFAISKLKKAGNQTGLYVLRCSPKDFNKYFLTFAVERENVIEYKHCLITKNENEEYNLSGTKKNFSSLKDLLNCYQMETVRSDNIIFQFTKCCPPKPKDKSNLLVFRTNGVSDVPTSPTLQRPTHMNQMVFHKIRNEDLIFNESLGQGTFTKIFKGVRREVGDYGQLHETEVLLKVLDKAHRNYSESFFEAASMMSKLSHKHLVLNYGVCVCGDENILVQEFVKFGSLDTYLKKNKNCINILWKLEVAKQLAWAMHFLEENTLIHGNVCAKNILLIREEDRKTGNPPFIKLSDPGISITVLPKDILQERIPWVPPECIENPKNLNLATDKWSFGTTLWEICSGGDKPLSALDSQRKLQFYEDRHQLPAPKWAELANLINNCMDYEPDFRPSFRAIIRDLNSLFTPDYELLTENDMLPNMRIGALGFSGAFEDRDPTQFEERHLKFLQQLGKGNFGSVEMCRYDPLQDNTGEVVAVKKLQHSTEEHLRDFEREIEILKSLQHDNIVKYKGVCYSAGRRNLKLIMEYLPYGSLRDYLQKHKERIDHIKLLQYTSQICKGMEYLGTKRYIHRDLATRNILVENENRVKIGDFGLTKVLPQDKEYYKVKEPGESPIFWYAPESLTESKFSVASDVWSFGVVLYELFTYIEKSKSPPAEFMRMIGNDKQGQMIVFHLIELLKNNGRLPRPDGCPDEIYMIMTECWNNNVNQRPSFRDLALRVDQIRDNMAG

SMILES | EC50 [µM] | Tyk2 selectivity over Jak2
COCc1cc(-c2cn(C)c3cnc(NC(C)=O)cc23)nc([C@]2([C@H](C)O)CCOC2)c1 [Example 22.3, N-(3-(6-((R)-3-((S)-1-hydroxyethyl)tetrahydrofuran-3-yl)-4-(methoxymethyl)pyridin-2-yl)-1-methyl-1H-pyrrolo[2,3-c]pyridin-5-yl)acetamide] | > 25 | >170-fold
COCc1cc(-c2cn(C)c3cnc(NC(C)=O)cc23)nc([C@]2([C@@H](C)O)CCOC2)c1 [Example 22.4, N-(3-(6-((R)-3-((R)-1-hydroxyethyl)tetrahydrofuran-3-yl)-4-(methoxymethyl)pyridin-2-yl)-1-methyl-1H-pyrrolo[2,3-c]pyridin-5-yl)acetamide] | > 25 | >223-fold
